Literature values in patent US20090306944A1, “DEVICE AND METHOD FOR CALCULATING AND SUPPLYING A DRUG DOSE” (BAYER TECHNOLOGY SERVICES GMBH, priority 2006, published 2009).
Where two headings read alike, the source gives them in different places.

How the values were obtained:
[1] = proportion of overall clearance, reference value in an adult
[2] = biological target: UGT1A1 (Homo sapiens, UniProt P22309); settings: proportion of overall clearance, reference value in an adult
[3] = for main binding protein in the plasma: adult
[4] = biological target: T1, CYP1A2 (Homo sapiens, UniProt P05177); settings: proportion of overall clearance, reference value in an adult
T1 sequence (P05177 1-516): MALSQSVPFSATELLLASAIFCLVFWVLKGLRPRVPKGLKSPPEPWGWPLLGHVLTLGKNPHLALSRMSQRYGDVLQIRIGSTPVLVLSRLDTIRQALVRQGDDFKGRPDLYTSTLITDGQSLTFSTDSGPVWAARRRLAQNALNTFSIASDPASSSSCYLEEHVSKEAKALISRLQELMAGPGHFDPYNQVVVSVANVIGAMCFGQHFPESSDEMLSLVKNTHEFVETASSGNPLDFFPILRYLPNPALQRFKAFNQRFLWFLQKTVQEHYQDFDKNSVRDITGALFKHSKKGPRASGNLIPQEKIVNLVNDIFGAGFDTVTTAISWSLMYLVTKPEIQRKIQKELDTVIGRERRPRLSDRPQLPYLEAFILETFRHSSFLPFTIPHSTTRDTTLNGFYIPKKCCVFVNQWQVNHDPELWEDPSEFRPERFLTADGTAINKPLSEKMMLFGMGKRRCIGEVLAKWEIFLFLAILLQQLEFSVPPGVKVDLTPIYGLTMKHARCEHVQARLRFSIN

[5] = biological target: CYP2E1 (Homo sapiens, UniProt P05181); settings: proportion of overall clearance, reference value in an adult
[6] = system: CYP3A; settings: in vivo
[7] = biological target: T2, UGT2B7 (Homo sapiens, UniProt P16662); settings: proportion of overall clearance, reference value in an adult
T2 sequence (P16662 24-529): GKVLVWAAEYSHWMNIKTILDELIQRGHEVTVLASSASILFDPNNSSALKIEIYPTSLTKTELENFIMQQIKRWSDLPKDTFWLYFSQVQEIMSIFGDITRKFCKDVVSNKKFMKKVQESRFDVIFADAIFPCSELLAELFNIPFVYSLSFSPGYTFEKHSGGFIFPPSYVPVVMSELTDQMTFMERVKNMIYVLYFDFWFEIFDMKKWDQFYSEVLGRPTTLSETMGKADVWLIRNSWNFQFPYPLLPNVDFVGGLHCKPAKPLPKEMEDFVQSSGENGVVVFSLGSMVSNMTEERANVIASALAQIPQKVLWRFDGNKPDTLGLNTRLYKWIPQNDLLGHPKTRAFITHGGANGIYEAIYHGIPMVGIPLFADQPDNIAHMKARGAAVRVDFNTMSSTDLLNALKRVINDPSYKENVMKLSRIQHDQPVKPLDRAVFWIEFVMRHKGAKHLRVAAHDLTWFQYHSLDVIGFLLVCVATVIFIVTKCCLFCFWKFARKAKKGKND

[8] = intravenously administered
[9] = biological target: T3, CYP3A4 (Homo sapiens, UniProt P08684); settings: proportion of overall clearance, reference value in an adult
T3 construct: the metabolizing enzymes in the liver; host or cells: liver enzymes of the adult, in vivo clearance

[10] = Measured
[11] = proportion of overall clearance, reference value in an adult
[12] = with co-medication with cyclosporin

Sequence of CYP2E1 (P05181 whole entry): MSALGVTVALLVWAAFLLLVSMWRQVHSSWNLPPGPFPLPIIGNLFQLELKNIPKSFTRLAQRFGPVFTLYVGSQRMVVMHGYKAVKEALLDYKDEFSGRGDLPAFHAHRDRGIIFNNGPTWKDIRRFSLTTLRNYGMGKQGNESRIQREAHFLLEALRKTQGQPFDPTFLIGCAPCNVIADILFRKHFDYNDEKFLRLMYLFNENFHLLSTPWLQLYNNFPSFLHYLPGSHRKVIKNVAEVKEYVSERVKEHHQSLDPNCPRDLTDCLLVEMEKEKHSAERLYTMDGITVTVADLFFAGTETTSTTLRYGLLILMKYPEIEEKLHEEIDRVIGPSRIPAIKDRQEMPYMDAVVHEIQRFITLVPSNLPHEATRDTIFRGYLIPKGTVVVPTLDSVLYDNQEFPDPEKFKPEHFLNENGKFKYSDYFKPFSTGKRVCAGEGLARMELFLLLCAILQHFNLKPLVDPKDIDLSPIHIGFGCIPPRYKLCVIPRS
T3 sequence (P08684 whole entry): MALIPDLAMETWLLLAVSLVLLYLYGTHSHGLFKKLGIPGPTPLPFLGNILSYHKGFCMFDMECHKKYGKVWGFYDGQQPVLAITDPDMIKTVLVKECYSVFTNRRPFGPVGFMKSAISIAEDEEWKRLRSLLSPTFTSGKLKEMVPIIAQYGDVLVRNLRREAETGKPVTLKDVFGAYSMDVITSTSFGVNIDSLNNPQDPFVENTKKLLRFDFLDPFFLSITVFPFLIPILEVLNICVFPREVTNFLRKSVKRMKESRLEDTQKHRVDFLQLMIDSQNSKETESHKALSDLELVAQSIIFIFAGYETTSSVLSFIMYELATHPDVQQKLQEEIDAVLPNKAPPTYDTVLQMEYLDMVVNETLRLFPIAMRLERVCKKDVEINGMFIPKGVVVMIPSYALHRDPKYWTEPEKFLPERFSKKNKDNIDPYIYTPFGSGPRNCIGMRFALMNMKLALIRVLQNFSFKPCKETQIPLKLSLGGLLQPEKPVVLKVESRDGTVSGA
Sequence of UGT1A1 (P22309 26-533): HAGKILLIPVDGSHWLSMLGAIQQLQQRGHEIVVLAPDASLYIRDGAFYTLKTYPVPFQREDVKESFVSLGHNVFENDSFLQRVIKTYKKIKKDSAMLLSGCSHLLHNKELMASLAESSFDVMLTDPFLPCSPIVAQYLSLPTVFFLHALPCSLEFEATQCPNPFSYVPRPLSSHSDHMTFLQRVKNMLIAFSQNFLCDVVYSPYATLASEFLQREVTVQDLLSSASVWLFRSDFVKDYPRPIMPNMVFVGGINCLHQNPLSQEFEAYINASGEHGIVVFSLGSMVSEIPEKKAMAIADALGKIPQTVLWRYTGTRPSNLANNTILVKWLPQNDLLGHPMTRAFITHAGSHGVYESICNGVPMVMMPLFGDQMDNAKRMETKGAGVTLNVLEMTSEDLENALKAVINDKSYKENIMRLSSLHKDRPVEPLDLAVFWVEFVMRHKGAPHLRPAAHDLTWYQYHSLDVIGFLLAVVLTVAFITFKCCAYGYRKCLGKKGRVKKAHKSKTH

C[C@H]1COc2c(N3CCN(C)CC3)c(F)cc3c(=O)c(C(=O)O)cn1c23 [Levofloxacin]
Excretion process: Renal (in vivo): Renal (80%) | Excretion process: Billiary [1]: Billiary (10%) | Excretion process: UGT1A1 [2]: UGT1A1 (10%) | Free fraction in the plasma ([3]; reference value in an adult): 70% (Albumin)

Cn1c(=O)c2c(ncn2C)n(C)c1=O [Caffeine]
Excretion process: CYP1A2 [4]: CYP1A2 (85%), | Excretion process: CYP2E1 [5]: CPY2E1 (13%), | Free fraction in the plasma ([3]; reference value in an adult): 70% (albumin)

Cc1ncc2n1-c1ccc(Cl)cc1C(c1ccccc1F)=NC2 [Midazolam]
Excretion process: CYP3A [6]: CYP3A (100%) | Free fraction in the plasma ([3]; plasma): 2% (Albumin)

O=C1Nc2ccc(Cl)cc2C(c2ccccc2Cl)=NC1O (stereo not drawn) [Lorazepam]
Excretion process: UGT2B7 [7]: UGT2B7 (100%) | Free fraction in the plasma ([3]; plasma): 8% (Albumin)

O=C(O)c1cn(C2CC2)c2cc(N3CCNCC3)c(F)cc2c1=O [Ciprofloxacin]
fraction renally excreted without being changed [8]: Approximately ⅔

CN[C@@H]1[C@@H](O)[C@@H](O[C@@H]2[C@@H](O)[C@H](O[C@H]3O[C@H](CN)[C@@H](O)[C@H](O)[C@H]3O)[C@@H](N)C[C@H]2NC(=O)[C@@H](O)CN)OC[C@]1(C)O [Isepamicin]
Excretion process: Renal [11]: Renal (100%) | Free fraction in the plasma ([3]; reference value in an adult): 95%

CC(=O)Nc1ccc(O)cc1 [Paracetamol]
main binding protein in the plasma [3]: Albumin | Free fraction in the plasma ([3]; reference value in an adult): 95%

CCCN1CCCC[C@H]1C(=O)Nc1c(C)cccc1C [Ropivacaine]
Excretion process: CYP1A2 [4]: CYP1A2 (90%), | Excretion process: CYP3A4 [9]: CYP3A4 (9%), | Excretion process: Renal [11]: Renal (1%) | main binding protein in the plasma [3]: α1-Glycoprotein | Free fraction in the plasma ([3]; reference value in an adult): 5%

CC(=O)O[C@H]1C(=O)[C@@]2(C)[C@H]([C@H](OC(=O)c3ccccc3)[C@]3(O)C[C@H](OC(=O)[C@H](O)[C@@H](NC(=O)c4ccccc4)c4ccccc4)C(C)=C1C3(C)C)[C@]1(OC(C)=O)CO[C@@H]1C[C@@H]2O [paclitaxel, Paclitaxel]
AUC [10, 12]: 1.7 ± 0.9 µM·h | Cmax [10, 12]: 200 ± 100 nM | T > 0.1 μM [10, 12]: 3.7 ± 2.3 h | T > 0.5 μM [10, 12]: 7.4 ± 4.4 h | AUC ([10]; without co-medication): 0.2 ± 0.1 µM·h | T > 0.1 μM ([10]; without co-medication): 0 h | T > 0.5 μM ([10]; without co-medication): 1.2 ± 0.9 h | Cmax ([10]; without co-medication, rounded-up value): 100 nM

Cn1c(=O)c2[nH]cnc2n(C)c1=O [Theophylline]
Excretion process: CYP1A2 [4]: CYP1A2 (60%), | Excretion process: Renal [11]: Renal (15%) | Excretion process: CYP2E1 [5]: CYP2E1 (25%),

Gentamicin
Free fraction in the plasma ([3]; plasma): 95%
